Measured values from ChEMBL document CHEMBL2203150, “CXCR3 antagonists: quaternary ammonium salts equipped with biphenyl- and polycycloaliphatic-anchors” (Bioorg Med Chem, 2011).

How the values were obtained:
[1] = biological target: T1, C-X-C chemokine receptor type 3 (Homo sapiens, UniProt P49682); test: Displacement of [125I]-CXCL10 from human CXCR3 expressed in HEK293 cells; assay type: cell-based
T1 sequence (P49682 whole entry): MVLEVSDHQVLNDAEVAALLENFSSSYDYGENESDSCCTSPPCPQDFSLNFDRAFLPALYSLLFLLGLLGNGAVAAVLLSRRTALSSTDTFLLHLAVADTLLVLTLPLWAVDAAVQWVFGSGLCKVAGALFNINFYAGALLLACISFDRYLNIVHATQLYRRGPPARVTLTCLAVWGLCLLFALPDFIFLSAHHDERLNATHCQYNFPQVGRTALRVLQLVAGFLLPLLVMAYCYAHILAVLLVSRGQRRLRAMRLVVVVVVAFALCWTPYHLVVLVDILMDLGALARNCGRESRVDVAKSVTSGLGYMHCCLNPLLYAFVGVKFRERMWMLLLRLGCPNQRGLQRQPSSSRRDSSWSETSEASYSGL

[2] = biological target: T2, C-X-C chemokine receptor type 3 (Homo sapiens) (UniProt P49682); test: Antagonist activity at human CXCR3 expressed in HEK293T cells co-expressing Galphaqi5 assessed as inhibition of CXCL10-induced [3H]-inositolphosphates levels; assay type: functional, cell-based; settings: HEK-293T
T2 sequence (whole entry): T1 sequence (P49682 whole entry)

[3] = biological target: T1, C-X-C chemokine receptor type 3; test: Displacement of [125I]-CXCL11 from human CXCR3 expressed in HEK293 cells; assay type: cell-based

Ki [1] [nM] | Compound | further results
> 316 | Cc1cccc(-c2ccc(CN(C)CC3=CC[C@H]4C[C@@H]3C4(C)C)cc2)c1 | –
398 | Cc1cccc(-c2ccc(C[N+](C)(C)CC3=CC[C@H]4C[C@@H]3C4(C)C)cc2)c1 | –
1000 | CC1(C)[C@H]2CC=C(C[N+](C)(C)CCc3ccc(Cl)cc3)[C@@H]1C2 | –
501 | CC1(C)[C@H]2CC=C(C[N+](C)(C)Cc3ccc4c(c3)Cc3ccccc3-4)[C@@H]1C2 | –
2510 | CC1(C)[C@H]2CC=C(C[N+]3(C)CCc4ccccc4C3)[C@@H]1C2 (stereo partly drawn) | –
1260 | CC1(C)[C@H]2CC=C(C[N+](C)(C)Cc3ccc(F)cc3)[C@@H]1C2 | –
631 | CC[N+](C)(CC1=CC[C@H]2C[C@@H]1C2(C)C)Cc1ccc(I)cc1 (stereo partly drawn) | –
> 316 | CN(CC1=CC[C@H]2C[C@@H]1C2(C)C)Cc1ccc2oc3ccccc3c2c1 | –
> 316 | CN(CC1=CC[C@H]2C[C@@H]1C2(C)C)Cc1cccc(-c2ccccc2)c1 | –
1580 | CC1(C)[C@@H]2CC[C@@]1(C)C(C[N+](C)(C)Cc1ccc(I)cc1)C2 (mixture of isomers) | –
200 | CC1(C)[C@H]2CC=C(C[N+](C)(C)Cc3ccc(Cl)cc3)[C@@H]1C2 | pKb [2]: 6.3; Ki [3]: 501 nM
3160 | CN(CC1=CC[C@H]2C[C@@H]1C2(C)C)Cc1ccc(Cl)c(Cl)c1 | –
1000 | Cn1c2ccccc2c2ccc(C[N+](C)(C)CC3=CC[C@H]4C[C@@H]3C4(C)C)cc21 | –
> 316 | CN(CC1=CC[C@H]2C[C@@H]1C2(C)C)Cc1ccc2c3ccccc3n(C)c2c1 | –
2510 | CN(CC1=CC[C@H]2C[C@@H]1C2(C)C)Cc1ccc(Cl)cc1 | –
> 316 | CN(CC1=CC[C@H]2C[C@@H]1C2(C)C)Cc1ccc2c(c1)Cc1ccccc1-2 | –
3160 | CC1(C)[C@H]2CC=C(C[N+](C)(C)Cc3cccc(-c4ccccc4)c3)[C@@H]1C2 | –
6310 | CN(CC1=CC[C@H]2C[C@@H]1C2(C)C)Cc1ccc(-c2cccc(N)c2)cc1 | –
794 | C[N+](C)(Cc1ccc(I)cc1)CC1C2CC3CC(C2)CC1C3 (stereo not drawn) | –
251 | CC1(C)[C@H]2CC=C(C[N+](C)(C)Cc3ccc(I)cc3)[C@@H]1C2 | pKb [2]: 6.6; Ki [3]: 398 nM
7940 | CN(Cc1ccc(I)cc1)CC1C[C@H]2CC[C@]1(C)C2(C)C (mixture of isomers) | –
1260 | CC1(C)[C@H]2CC=C(C[N+](C)(C)Cc3ccc(-c4ccc(C(F)(F)F)cc4)cc3)[C@@H]1C2 | –
6310 | CN(CC1=CC[C@H]2C[C@@H]1C2(C)C)Cc1ccc(F)cc1 | –
501 | CC1(C)[C@H]2CC=C(C[N+](C)(C)Cc3ccc(-c4cccc(C(F)(F)F)c4)cc3)[C@@H]1C2 | –
3160 | CN(CC1=CC[C@H]2C[C@@H]1C2(C)C)Cc1ccc(-c2ccccc2)cc1 | –
> 316 | CN(CC1=CC[C@H]2C[C@@H]1C2(C)C)Cc1ccc(-c2cccc(O)c2)cc1 | –

Ki [1] [nM] | Compound | further results
> 316 | CN(CC1=CC[C@H]2C[C@@H]1C2(C)C)Cc1ccc(-c2cc(Cl)cc(Cl)c2)cc1 | –
> 316 | COC(=O)c1cccc(-c2ccc(CN(C)CC3=CC[C@H]4C[C@@H]3C4(C)C)cc2)c1 | –
5010 | CN(CCC12CC3CC(CC(C3)C1)C2)Cc1ccc(I)cc1 | –
2510 | CN(CC1=CC[C@H]2C[C@@H]1C2(C)C)Cc1ccc(-c2cccc(F)c2)cc1 | –
631 | C[N+](C)(CCC12CC3CC(CC(C3)C1)C2)Cc1ccc(I)cc1 | –
3980 | CN(CC1=CC[C@H]2C[C@@H]1C2(C)C)Cc1ccc(-c2ccsc2)cc1 | –
> 316 | COc1ccc(-c2ccc(CN(C)CC3=CC[C@H]4C[C@@H]3C4(C)C)cc2)cc1OC | –
2000 | CC1(C)[C@H]2CC=C(C[N+](C)(C)Cc3cccc(I)c3)[C@@H]1C2 | –
2000 | CN(CC1=CC[C@H]2C[C@@H]1C2(C)C)Cc1ccc(-c2cccc([N+](=O)[O-])c2)cc1 | –
251 | CC1(C)[C@H]2CC=C(C[N+](C)(C)Cc3ccc(-c4ccoc4)cc3)[C@@H]1C2 | –
631 | CC1(C)[C@H]2CC=C(C[N+](C)(C)Cc3ccc(-c4ccccc4F)cc3)[C@@H]1C2 | –
1580 | CC1(C)[C@H]2CC=C(C[N+](C)(C)Cc3ccc(-c4cccc(O)c4)cc3)[C@@H]1C2 | –
6310 | CN(CC1=CC[C@H]2C[C@@H]1C2(C)C)Cc1ccc(-c2ccoc2)cc1 | –
1580 | CC1(C)[C@H]2CC=C(C[N+](C)(C)Cc3ccccc3I)[C@@H]1C2 | –
15800 | CN(CC1=CC[C@H]2C[C@@H]1C2(C)C)Cc1ccccc1 | –
7940 | CN(Cc1ccc(I)cc1)CC1C2CC3CC(C2)CC1C3 (stereo not drawn) | –
316 | CC1(C)[C@H]2CC=C(C[N+](C)(C)Cc3ccc(Br)cc3)[C@@H]1C2 | –
398 | CC1(C)[C@H]2CC=C(C[N+](C)(C)Cc3ccc(Cl)c(Cl)c3)[C@@H]1C2 | –
2000 | C[N+](C)(Cc1ccc(I)cc1)CC12CC3CC(CC(C3)C1)C2 | –
3160 | CN(CC1=CC[C@H]2C[C@@H]1C2(C)C)Cc1ccc(I)cc1 | –
126 | CC1(C)[C@H]2CC=C(C[N+](C)(C)Cc3ccc(-c4cccc(Cl)c4)cc3)[C@@H]1C2 | pKb [2]: 6.3; Ki [3]: 316 nM
2000 | CC1(C)[C@H]2CC=C(C[N+](C)(C)Cc3ccc(Oc4ccccc4)cc3)[C@@H]1C2 | –
7940 | CN(CC1=CC[C@H]2C[C@@H]1C2(C)C)Cc1cccc(I)c1 | –
3980 | CC1(C)[C@H]2CC=C(C[N+](C)(C)Cc3ccccc3)[C@@H]1C2 | –
> 316 | CN(CC1=CC[C@H]2C[C@@H]1C2(C)C)Cc1ccc(-c2ccc(C(F)(F)F)cc2)cc1 | –
> 316 | CN(CC1=CC[C@H]2C[C@@H]1C2(C)C)Cc1ccc(Oc2ccccc2)cc1 | –

Ki [1] [nM] | Compound | further results
398 | CC1(C)[C@H]2CC=C(C[N+](C)(C)Cc3ccc(-c4cc(Cl)cc(Cl)c4)cc3)[C@@H]1C2 | –
1000 | C[N+](C)(C/C1=C/CCCCCC1)Cc1ccc(I)cc1 (mixture of isomers) | –
1000 | COC(=O)c1cccc(-c2ccc(C[N+](C)(C)CC3=CC[C@H]4C[C@@H]3C4(C)C)cc2)c1 | –
> 316 | CN(CC1=CC[C@H]2C[C@@H]1C2(C)C)Cc1ccc(-c2cccc(C(F)(F)F)c2)cc1 | –
3980 | N=C(Nc1ccc(I)cc1)NC1C2CC3CC(C2)CC1C3 (stereo not drawn) | Ki [3]: 3980 nM
3980 | CCN(CC1=CC[C@H]2C[C@@H]1C2(C)C)Cc1ccc(I)cc1 | –
631 | CC(=O)c1cccc(-c2ccc(C[N+](C)(C)CC3=CC[C@H]4C[C@@H]3C4(C)C)cc2)c1 | –
– | CCOc1ccc(-n2c([C@@H](C)N(Cc3cccnc3)C(=O)Cc3ccc(OC(F)(F)F)cc3)nc3ncccc3c2=O)cc1 | inhibition [2]: Dose-dependent effect; pKb [2]: 8
7940 | CN(C/C1=C/CCCCCC1)Cc1ccc(I)cc1 (mixture of isomers) | –
316 | CC1(C)[C@H]2CC=C(C[N+](C)(C)Cc3ccc(-c4cccc(F)c4)cc3)[C@@H]1C2 | –
2510 | Ic1ccc(CNCC2C3CC4CC(C3)CC2C4)cc1 (stereo not drawn) | –
3160 | CC1(C)[C@H]2CC=C(C[N+](C)(C)Cc3ccc(-c4cccc(N)c4)cc3)[C@@H]1C2 | –
> 316 | CN(CC1=CC[C@H]2C[C@@H]1C2(C)C)Cc1ccc(-c2ccccc2F)cc1 | –
501 | COc1ccc(-c2ccc(C[N+](C)(C)CC3=CC[C@H]4C[C@@H]3C4(C)C)cc2)cc1OC | –
5010 | CN(CC1=CC[C@H]2C[C@@H]1C2(C)C)Cc1ccccc1I | –
12600 | CC1(C)[C@H]2CC=C(CN3CCc4ccccc4C3)[C@@H]1C2 | –
200 | CC1(C)[C@H]2CC=C(C[N+](C)(C)Cc3ccc(-c4cccc([N+](=O)[O-])c4)cc3)[C@@H]1C2 | –
200 | CC1(C)[C@H]2CC=C(C[N+](C)(C)Cc3ccc(-c4ccsc4)cc3)[C@@H]1C2 | pKb [2]: 6.4; Ki [3]: 316 nM
> 316 | CC(=O)c1cccc(-c2ccc(CN(C)CC3=CC[C@H]4C[C@@H]3C4(C)C)cc2)c1 | –
316 | CC1(C)[C@H]2CC=C(C[N+](C)(C)Cc3ccc(-c4ccccc4)cc3)[C@@H]1C2 | –
501 | CC1(C)[C@H]2CC=C(C[N+](C)(C)Cc3ccc4oc5ccccc5c4c3)[C@@H]1C2 | –
> 316 | CN(CC1=CC[C@H]2C[C@@H]1C2(C)C)Cc1ccc(-c2ccc(Cl)cc2)cc1 | –
501 | CC1(C)[C@H]2CC=C(C[N+](C)(C)Cc3ccc(-c4ccc(Cl)cc4)cc3)[C@@H]1C2 | –
3980 | CN(CC1=CC[C@H]2C[C@@H]1C2(C)C)Cc1ccc(-c2cccc(Cl)c2)cc1 | –
3160 | CN(CC1=CC[C@H]2C[C@@H]1C2(C)C)Cc1ccc(Br)cc1 | –

Compound | Ki [1] [nM] | further results
CN(CCc1ccc(Cl)cc1)CC1=CC[C@H]2C[C@@H]1C2(C)C | 5010 | –
